The text below walks through data of US8163718B2, “Nucleoside analogues containing phosphonate or phosphonamide groups” (Gilead Sciences, Inc., priority 2008, dated 2012).

What all share (experiment): Cytostatic cell culture assay (GI50), SRB
Holding throughout (assay type): cell-based

One assay deals with A549. The note with it: Homo sapiens, A549, 120 h; 5 days incubation. In outline:
(§1)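 SRB cytostatic assay: cells plated overnight, then exposed to 5-fold serial compound dilutions for 5 days at 37 °C, TCA-fixed, SRB-stained, OD read at 500 nm. Growth relative to day-zero and untreated plates; GI50 from sigmoidal dose-response fit.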

The subject of a further assay is BT-549. Particulars: Homo sapiens, BT-549, 120 h; 5 days incubation. The method, boiled down:
as §1

The next assay deals with Du-145. The note with it: Homo sapiens, DU-145, 120 h; 5 days incubation. The method, boiled down:
as §1

A further assay concerns HCT-116. The note with it: Homo sapiens, HCT-116, 120 h; 5 days incubation. The method, boiled down: as §1
A further assay concerns HCT-15. Particulars: Homo sapiens, HCT-15, 120 h; 5 days incubation. The method, boiled down:
as §1

In another assay the test system is Hs-578. The note with it: Hs578, 120 h; 5 days incubation. The method, boiled down: as §1
For another assay, the system named is NCI-H23. Particulars: Homo sapiens, NCI-H23, 120 h; 5 days incubation. The method, boiled down: as §1
Another assay relates to PC3. Particulars: Homo sapiens, PC-3, 120 h; 5 days incubation. The method, boiled down: as §1

SMILES strings stand for the structures.

Broadly, the GI50 is the concentration at which growth is held to half of that of the control. The low end stands for greater sensitivity of the cells, the high end for lower sensitivity of the cells.

With `CCCOc1nc(N)nc2c1ncn2CCOCP(=O)(N1CCC[C@H]1C(=O)OCC)N1CCC[C@H]1C(=O)OCC` [Example 21], the GI50 was found to be 0.128 µM in the assay on A549; 0.033 µM with BT-549; 0.002 µM in the assay on Du-145; 0.041 µM in the assay on HCT-116; 6.7 µM in the assay with HCT-15; 0.017 µM with Hs-578. In addition, the GI50 in the assay with NCI-H23 turned out to be 0.002 µM; in the assay with PC3, 0.026 µM.
